Read-outs that look alike come from different tables or passages of the source.
What was measured:
[1] = tested on: human cancer cell lines; assay: Growth inhibition against the panel of human tumor cell lines (SRB), overall statements; format: cell-based; conditions: Table 3 cell lines
Method: (§1) Cancer cell lines to determine the effect of 5, 6, or 7-substituted-3-(hetero)arylisoquinolinamine compounds were obtained from the following sources: Human MDA-MB-231 (breast), PC3 (prostate), HCT-15 (colon), HCT116 (colon), OVCAR-3 (ovary), Caki-1 (kidney), PANC-1 (pancreas), SNB-19 (glioblastoma) and SK-MEL-28 (melanoma) from the American Type Culture Collection (ATCC) (Manassas, Va.). PC3, OVCAR-3, SK-MEL-28 and SNB-19 were grown in RPMI1640 medium (Invitrogen, Carlsbad, Calif.) supplemented with 10% fetal bovine serum (“FBS”), 1 mM sodium pyruvate, 10 mM HEPES and 100 U/ml penicillin and 100 μg/ml streptomycin (“P/S”). MDA-MB-231, Caki-1, HCT-15 (colon) and PANC-1 cells were maintained in Dulbecco's modified Eagle's medium (“DMEM”, Invitrogen) supplemented with 10% FBS, P/S and 10 mM HEPES. HCT116 cells were maintained in DMEM supplemented with 10% FBS, P/S and 10 mM HEPES for in vitro cell proliferation assay and in RPMI1640 medium supplemented with 10% FBS, 1 mM sodium pyruvate, 10 mM HEPES and P/S for in vitro cell cycle analysis. All cells were incubated at 37° C. under humidified 5% CO2.
(§2) The growth inhibition of the 5, 6, or 7-substituted-3-(hetero)arylisoquinolinamine derivatives against a variety of human tumor cells was evaluated to study the relative importance of particular substituent groups on the compounds. The 5, 6, or 7-substituted-3-(hetero)arylisoquinolinamine derivatives, prepared as described above, were tested with DMSO as a control.
(§3) The growth inhibition assay of representative 5, 6, or 7-substituted-3-(hetero)arylisoquinolinamine derivatives against human tumor cell lines was performed using the Sulforhodamine B (“SRB”) method (Skehan et al., J. National Cancer Institute, 82: 1107-1112 (1990)). Briefly, exponentially growing tumor cells were seeded into a 96-well plate at a density of 2-3×10^3 cells/well and treated with 5, 6, or 7-substituted-3-(hetero)arylisoquinolinamine compounds the next day. Triplicate wells were used for each treatment. The cells were incubated with the various compounds for 96 hours at 37° C. in a humidified 5% CO2 atmosphere. After 96-hour incubation, cells were fixed with 10% trichloroacetic acid (“TCA”), incubated for 1 hour at 4° C., and washed 3 times with tap water. Subsequently, cells were stained with 0.4% sulforhodamine B in 1% acetic acid for 30 minutes, washed 4 times with 1% acetic acid, and air-dried again. After 5 minutes agitation in 10 mM Tris solution, the absorbance of each well was measured at 530 nm using Benchmark Plus Microplate reader (Bio-Rad Laboratories, Hercules, Calif.).
(§4) To translate the OD530 values into the number of live cells in each well, the OD530 values were compared to those on standard OD530-versus-cell number curves generated for each cell line. The percent survival was calculated using the formula: % Survival=live cell number [test]/live cell number [control]×100
(§5) The IC50 values were calculated by non-linear regression analysis.
Using QSAR and medicinal chemistry techniques, a large number of compounds, including the compounds shown in Table 1-2 above, were synthesized. The synthesized compounds were screened against at least four cancer cell lines, PANC-1, MDA-MB-231, HCT116 and Caki-1, at approximately 1 μM concentration. Compounds showing activity in at least one of these cell lines were selected for further screening. From these compounds, thirty compounds were selected for further evaluation as broad-spectrum anti-proliferative agents as shown in the following Table 3.

[2] = tested on: HCT116 (colon); assay: In vitro cell proliferation assay (SRB), HCT116; format: cell-based; conditions: Homo sapiens, HCT-116
Method: as §1, §2, §3, §4, §5

[3] = tested on: PC3 (prostate); assay: In vitro cell proliferation assay (SRB), PC3; format: cell-based; conditions: Homo sapiens; SRB method, 96 hours; read-out: Inhibition of cell growth (IC50, μM) PC3
Method: as §1, §2, §3, §4, §5

[4] = tested on: Caki-1 (kidney); assay: In vitro cell proliferation assay (SRB), Caki-1; format: cell-based; conditions: Homo sapiens, SRB method, 96 hours, read-out: Inhibition of cell growth (IC50, μM) Caki-1
Method: as §1, §2, §3, §4, §5

[5] = tested on: SK-MEL-28 (melanoma); assay: In vitro cell proliferation assay (SRB), SK-MEL-28; format: cell-based; conditions: Homo sapiens, SRB method, 96 hours, read-out: Inhibition of cell growth (IC50, μM) SK-MEL-28
Method: as §1, §2, §3, §4, §5

[6] = tested on: PANC-1 (pancreas); assay: In vitro cell proliferation assay (SRB), PANC-1; format: cell-based; conditions: Homo sapiens, SRB method, 96 hours, read-out: Inhibition of cell growth (IC50, μM) PANC-1
Method: as §1, §2, §3, §4, §5

[7] = tested on: HCT116 cells; assay: In vitro cell cycle analysis (PI staining); format: cell-based, Human; conditions: HCT116, 0.3 uM, 12 hours; for % Cells in S: DMSO control 20.5; for % Cells in G1: DMSO control 39.4; for % Cells in G2/M: DMSO control 40.1
Method: as §1
This assay was used to determine the ability of 5, 6, or 7-substituted-3-(hetero)arylisoquinolinamine compounds to arrest cells at a specific phase during cell cycle. The day before drug treatment, HCT116 cells were plated at 50-70% saturation in a 10 cm dish in RPMI1640 medium with 10% FBS and then incubated overnight in a humidified 37° C. incubator with 5% CO2. The following day RPMI1640 medium (with 10% FBS) carrying the appropriate concentration of test compound solubilized in DMSO was added to the dishes. No compound control treatment was also included (0.25% DMSO). The cells were then incubated for 12 hours and were harvested by centrifugation at 7,000 rpm for 5 minutes. Cell pellets were resuspended in 0.2 ml of PBS containing 0.1% glucose and 2% FBS. Subsequently, 5 ml ice-cold 70% ethanol was added dropwise with shaking and the treated cells were stored at −20° C. at least 30 minutes. Cells were centrifuged at 2,000 rpm for 5 minutes and washed once with 1 ml PBS with 0.1% glucose and 2% FBS. After removal of the supernatant, cells were resuspended in 0.5 ml of 70 μM propium iodide (PI) solution containing 0.1% Triton X-100, 40 mM sodium citrate, pH 7.4. RNase was added at 50 μg/ml final concentration and cells were incubated at 37° C. for 30 minutes. PI stained cells were analyzed by Guava PCA-AFP instrument using its cell cycle software program (Guava Technologies, Hayward, Calif.) and expressed as percentage of cells in G1, S and G2/M phases of the cell cycle.

[8] = tested on: OVCAR-3 (ovary); assay: In vitro cell proliferation assay (SRB), OVCAR3; format: cell-based; conditions: Homo sapiens, SRB method, 96 hours, read-out: Inhibition of cell growth (IC50, μM) OVCAR3
Method: as §1, §2, §3, §4, §5

[9] = tested on: MDA-MB-231 (breast); assay: In vitro cell proliferation assay (SRB), MDA-MB-231; format: cell-based; conditions: Homo sapiens, SRB method, 96 hours, read-out: Inhibition of cell growth (IC50, μM) MDA-MB-231
Method: as §1, §2, §3, §4, §5

[10] = tested on: paclitaxel-resistant HCT-15 colorectal cancer cells; assay: In vitro antitumor effects against paclitaxel-resistant HCT-15 cells; format: cell-based, Human; conditions: for IC50: Homo sapiens, paclitaxel-resistant HCT-15, Table 5, read-out: Inhibition of cell growth, IC50 (μM) HCT-15
Method: as §1, §3, §4, §5
Compound 13 and 14 were tested in colon cancer cells and their antitumor activities were compared with paclitaxel (Taxol®).

[11] = tested on: SNB-19 (glioblastoma); assay: In vitro cell proliferation assay (SRB), SNB19; format: cell-based; conditions: Homo sapiens, SRB method, 96 hours, read-out: Inhibition of cell growth (IC50, μM) SNB19
Method: as §1, §2, §3, §4, §5

[12] = tested on: HCT15 human colon carcinoma xenografts; assay: Ex vivo xenograft study of nude mice; format: in vivo; conditions: 10 mg/kg/day intraperitoneal, three times per week, day 10 to day 29, nude mice
Method: In order to observe the inhibition of growth of tumor in an animal model, an ex vivo xenograft study of nude mice was conducted utilizing Compound 13. Paclitaxel-resistant HCT15 cell suspension (1×10^6 cells in 0.2 ml of RPMI) was injected subcutaneously into the right flank of six-week-old female athymic mice (BALB/c nu/nu) on day 0. A sufficient number of mice were injected with HCT15 cell suspension so that tumors in a volume range as narrow as possible were selected for the trial on the day of treatment initiation. Animals with tumors in the proper size range were assigned to various treatment groups. Palcitaxel was used as a positive control. Compound 13 and paclitaxel were dissolved in 5 Cremophor and 5% ethanol in PBS and solvent alone served as vehicle control. All study medications (vehicle control, paclitaxel: 10 mg/kg/day, Compound 13: 10 mg/kg/day) were given by intraperitoneal injections three times per week starting from day 10 and ending on day 29 after inoculation of HCT15 cells. To quantify tumor growth, three perpendicular diameters of the tumors were measured with calipers every 3-5 days, and the body weight of the mice was monitored for toxicity. The tumor volume was calculated using the formula: tumor volume (mm^3)=(width)×(length)×(height)×π/6.

[13] = SRB method, 96 hours, Table 3, read-out: Inhibition of cell growth (IC50, μM) HCT116
[14] = Table 5, read-out: Inhibition of cell growth, IC50 (μM) HCT116

Row | Compound | activity in growth inhibition of human cancer cell compared to Compound 23 [1] | times more active than compound 23 in tested cell lines [1] | IC50 [2, 13] [µM] | IC50 [2, 14] [µM] | IC50 [3] [µM] | IC50 [4] [µM] | IC50 [5] [µM] | IC50 [6] [µM] | % Cells in S [7] [%] | % Cells in G1 [7] [%] | % Cells in G2/M [7] [%] | IC50 [8] [µM] | IC50 [9] [µM] | IC50 [10] [µM] | antitumor activity compared with paclitaxel ([10]; paclitaxel-resistant HCT-15 colorectal cancer cells) | IC50 [11] [µM] | loss of activity in HCT-15 cells when IC50 values compared in both colon cancer cells ([10]; HCT-15 versus HCT116) [fold] | % Inhibition of HCT-15 human colorectal cancer in mice at 29 days [12] [%]
1 | Cc1cccc(-c2cc3ccc(N(C)C)cc3c(N)n2)c1.Cl [Compound 14, N^7,N^7-Dimethyl-3-m-tolylisoquinoline-1,7-diamine hydrochloride] | equal or better activity | five to thirteen times more active | 0.023 | 0.023 | 0.024 | 0.023 | 0.032 | 0.018 | 7.6 | 10.3 | 82.1 | 0.016 | 0.021 | 0.021 | higher antitumor activities than that of paclitaxel | 0.028 |  | 
2 | Cc1ccc2cc(-c3c(C)cccc3C)nc(N)c2c1 [Compound 43, 7-Methyl-3-(2,6-dimethylphenyl)isoquinolin-1-amine] | equal or better activity |  | 0.074 |  | 0.12 | 0.048 | 0.12 | 0.079 | 10.8 | 15.3 | 73.9 | 0.075 | 0.051 |  |  | 0.12 |  | 
3 | COc1ccc(C)c(-c2cc3ccc(C)cc3c(N)n2)c1 [Compound 50, 3-(5-Methoxy-2-methylphenyl)-7-methyl-isoquinolin-1-amine] | equal or better activity |  | 0.042 |  | 0.07 | 0.047 | 0.051 | 0.058 |  |  |  | 0.042 | 0.03 |  |  | 0.052 |  | 
4 | COc1cccc(-c2cc3cc(OC)c(OC)cc3c(N)n2)c1 [Compound 52, 6,7-Dimethoxy-3-(3-methoxyphenyl)isoquinolin-1-amine] | equal or better activity |  | 0.16 |  | 0.18 | 0.17 | 0.23 | 0.19 |  |  |  | 0.074 | 0.14 |  |  | 0.22 |  | 
5 | CC(=O)O[C@H]1C(=O)[C@@]2(C)[C@H]([C@H](OC(=O)c3ccccc3)[C@]3(O)C[C@H](OC(=O)[C@H](O)[C@@H](NC(=O)c4ccccc4)c4ccccc4)C(C)=C1C3(C)C)[C@]1(OC(C)=O)CO[C@@H]1C[C@@H]2O [Paclitaxel, paclitaxel, reference compound] |  |  |  | 0.002 |  |  |  |  |  |  |  |  |  | 0.14 |  |  | 70 | 48.8

From patent US8314123B2, “5, 6, or 7-substituted -3-(hetero) arylisoquinolinamine derivatives and therapeutic use thereof” (Rexahn Pharmaceuticals, Inc., priority 2006, dated 2012)
